pEC50: −log10 of the molar value. Structures can show the parent of a compound that is named as a salt.
Assays:
[1] = biological target: T1, GKRP (Glucokinase Regulatory Protein) with human His-hepatic GK (Homo sapiens, UniProt Q14397); assay: GKRP NADPH Coupled Assay; type: biochemical; conditions: indirect measure of glucose-6-phosphate, fluorescence, 1 μM GKRP (10×), 20 nM GK (5×)
T1 sequence (Q14397 1-625): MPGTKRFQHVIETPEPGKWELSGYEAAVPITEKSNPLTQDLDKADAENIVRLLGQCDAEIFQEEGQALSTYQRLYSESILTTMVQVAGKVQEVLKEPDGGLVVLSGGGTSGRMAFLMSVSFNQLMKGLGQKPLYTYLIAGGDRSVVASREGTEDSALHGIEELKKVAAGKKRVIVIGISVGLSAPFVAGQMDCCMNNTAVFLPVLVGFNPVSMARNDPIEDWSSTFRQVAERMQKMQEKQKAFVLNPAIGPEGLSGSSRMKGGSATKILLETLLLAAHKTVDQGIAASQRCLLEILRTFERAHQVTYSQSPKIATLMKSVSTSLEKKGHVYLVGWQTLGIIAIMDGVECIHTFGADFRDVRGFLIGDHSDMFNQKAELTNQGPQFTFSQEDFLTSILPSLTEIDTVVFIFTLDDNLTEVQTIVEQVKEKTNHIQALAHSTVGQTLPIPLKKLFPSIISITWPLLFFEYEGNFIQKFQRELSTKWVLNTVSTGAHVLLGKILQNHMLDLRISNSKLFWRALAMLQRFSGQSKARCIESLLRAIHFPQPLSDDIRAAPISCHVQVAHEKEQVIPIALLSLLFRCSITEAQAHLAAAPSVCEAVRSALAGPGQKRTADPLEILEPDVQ
Protocol: (§1) This assay is used to directly measure the formation of ^13C-glucose-6-phosphate from ^13C-glucose by liquid chromatography-mass spectrometry (LC MS/MS). Begin by preparing the following solutions: Compound Buffer (CB): 50 mM Tris, pH 7.5/4 mM MgCl2/6% DMSO/fresh 10 mM DTT from 1M frozen stock. Enzyme Buffer (EB): 50 mM Tris, pH 7.5/4 mM MgCl2/6% DMSO/fresh 0.1% BSA/fresh 0.01% Brij-35 (10% BSA and 1% Brij-35 stock). GK (Glucokinase) Working Stock (5×): Dilute human His-hepatic GK to 30 nM in EB buffer. […] After 30 minutes add 10 μl of GK Working Stock (5×). Re-seal the plate and incubate for another 30 minutes at room temperature while mixing. After the second 30 minutes, stop the reaction by the addition of 50 μl of 100% acetonitrile, seal, and mix for 5-10 minutes. Run 10 μl of this sample through the LC MS/MS (API 3200, Applied Biosystems Inc., Carlsbad, Calif.).
This assay is used as an indirect measure of glucose-6-phosphate (G6P) formed from glucose due to the enzymatic activity of glucokinase. Assay format is the same as for GKRP LC MS/MS Biochemical Assay with the following exceptions. GK Working Stock (5×): Dilute human His-hepatic GK to 20 nM in EB buffer. Stop & Detection Reagent (2×): Dilute β-nicotinamide adenine dinucleotide phosphate sodium salt (β-NADP) (Aldrich-Sigma, St. Louis, Mo.) to 2 mM from 100 mM stock (stock in 10 mM Tris, pH 9.2) and dilute glucose-6-phosphate dehydrogenase (Aldrich-Sigma, St. Louis, Mo.) to 0.04 Unit/μl from 10 Unit/μl (stock in 10 mM Tris pH 7.5/0.05% Brij-35) in 0.2 M Tris, pH 9.2/8% DMSO. After the initial 30 minute incubation add 10 μl of 20 nM GK diluted in EB (5×). Re-seal the plate and incubate for another 1 hour at room temperature while mixing. After 1 hour remove the seal and add 50 μl of Stop & Detection Reagent and incubate for 5 minutes at room temperature while mixing.

[2] = biological target: T1, GKRP (Glucokinase Regulatory Protein) with human His-hepatic GK; assay: GKRP LC MS/MS Biochemical Assay; conditions: 13C-glucose-6-phosphate formation, 1 μM GKRP (10×), 30 nM GK (5×)
Protocol: GKRP LC MS/MS Biochemical Assay
as §1

Row | Compound | pEC50 ([1]; GK-GKRP EC50 (NADPH-coupled)) | pEC50 ([2]; GK-GKRP EC50 (LC MS/MS)) | pEC50 ([1]; read-out: GK-GKRP EC50 (NADPH-coupled)) | pEC50 ([2]; read-out: GK-GKRP EC50 (LC MS/MS))
1 | C[C@H]1CN(S(=O)(=O)c2ccccc2)CCN1c1ccc(C(O)(C(F)(F)F)C(F)(F)F)cc1 [Example 12, 1,1,1,3,3,3-hexafluoro-2-(4-((2S)-2-methyl-4-(phenylsulfonyl)-1-piperazinyl)phenyl)-2-propanol] | 6.09 | 6.05 |  | 
2 | CC(O)(c1ccc(N2CCN(S(=O)(=O)c3cccs3)CC2CN2CCOCC2CO)cc1)C(F)(F)F (mixture of isomers) [Example 48, 1,1,1-trifluoro-2-(4-(2-((3-(hydroxymethyl)-4-morpholinyl)methyl)-4-(2-thiophenylsulfonyl)-1-piperazinyl)phenyl)-2-propanol] | 6.41 | 6.22 |  | 
3 | CC(O)(c1ccc(N2CCN(S(=O)(=O)c3cccs3)CC2COCc2ccccc2)cc1)C(F)(F)F (mixture of isomers) [Example 44 Step 5, 2-(4-(2-((benzyloxy)methyl)-4-(2-thiophenylsulfonyl)-1-piperazinyl)phenyl)-1,1,1-trifluoro-2-propanol] | 6.38 | 6.21 |  | 
4 | CC(O)(c1ccc(-c2ccc(S(=O)(=O)c3ccccc3)c(Cl)c2)nc1)C(F)(F)F (racemic) [Example 18, 2-(6-(3-chloro-4-(phenylsulfonyl)phenyl)-3-pyridinyl)-1,1,1-trifluoro-2-propanol] | 5.43 | 5.45 |  | 
5 | O=S(=O)(c1c[nH]cn1)N1CCN(c2ccc(C(O)(C(F)(F)F)C(F)(F)F)cc2)CC1 [Example 60, 1,1,1,3,3,3-hexafluoro-2-(4-(4-(1H-imidazol-4-ylsulfonyl)-1-piperazinyl)phenyl)-2-propanol] | 5.63 | 5.63 |  | 
6 | CC(O)(c1ccc(N2CCN(S(=O)(=O)c3cccs3)C[C@@H]2Cc2ccccc2)cc1)C(F)(F)F (single isomer, unassigned) [Example 65 Peak #1] | 6.44 | 6.19 |  | 
7 | C[C@H]1CN(S(=O)(=O)c2nccs2)CCN1c1ccc(C(O)(C(F)(F)F)C(F)(F)F)cc1 [Example 31, 1,1,1,3,3,3-hexafluoro-2-(4-((2S)-2-methyl-4-(1,3-thiazol-2-ylsulfonyl)-1-piperazinyl)phenyl)-2-propanol trifluoroacetate] | 6.25 | 6.15 |  | 
8 | CN(Cc1ccccc1)CC1CN(S(=O)(=O)c2cccs2)CCN1c1ccc(C(C)(O)C(F)(F)F)cc1 (mixture of isomers) [Example 62, 2-(4-(2-((benzyl(methyl)amino)methyl)-4-(2-thiophenylsulfonyl)-1-piperazinyl)phenyl)-1,1,1-trifluoro-2-propanol] | 6.00 | 5.91 |  | 
9 | CC(O)(c1ccc(-c2ccc(S(=O)(=O)c3ccccc3)c(Cl)c2)cc1)C(F)(F)F (racemic) [Example 19, 2-(3′-chloro-4′-(phenylsulfonyl)-4-biphenylyl)-1,1,1-trifluoro-2-propanol] | 5.45 | 5.37 |  | 
10 | C[C@H]1CN(S(=O)(=O)c2nnc(N)s2)CCN1c1ccc(C(C)(O)C(F)(F)F)cc1 (mixture of isomers) [Example 35, 2-(4-((2S)-4-((5-amino-1,3,4-thiadiazol-2-yl)sulfonyl)-2-methyl-1-piperazinyl)phenyl)-1,1,1-trifluoro-2-propanol] | 5.52 | 5.25 |  | 
11 | COc1cccc(-c2cc(C(O)(C(F)(F)F)C(F)(F)F)ccc2N2CCN(S(=O)(=O)c3cccs3)CC2)c1 [Example 70, 1,1,1,3,3,3-hexafluoro-2-(3′-methoxy-6-(4-(2-thiophenylsulfonyl)-1-piperazinyl)-3-biphenylyl)-2-propanol trifluoroacetate] | 5.48 | 5.74 |  | 
12 | C[C@H]1CN(S(=O)(=O)c2nccs2)CCN1c1ccc(C(C)(O)C(F)(F)F)cc1 (single isomer, unassigned) [Example 34 Peak #2] | 5.71 | 5.72 |  | 
13 | CC(O)(c1ccc(N2CCN(S(=O)(=O)c3cccs3)CC2CC2CCCCC2)cc1)C(F)(F)F (mixture of isomers) [Example 58, 2-(4-(2-(cyclohexylmethyl)-4-(2-thiophenylsulfonyl)-1-piperazinyl)phenyl)-1,1,1-trifluoro-2-propanol] |  |  | 6.00 | 5.88
14 | CC(O)(c1ccc(N2CCN(S(=O)(=O)c3ccccc3)CC2)cc1)C(F)(F)F (racemic) [Example 24, 1,1,1-trifluoro-2-(4-(4-(phenylsulfonyl)-1-piperazinyl)phenyl)-2-propanol] | 5.74 | 5.40 |  | 
15 | O=S(=O)(c1cccs1)N1CCN(c2ccc(C(O)(C(F)(F)F)C(F)(F)F)cc2)[C@@H](Cc2ccccc2)C1 [Example 64, 2-(4-((2S)-2-benzyl-4-(2-thiophenylsulfonyl)-1-piperazinyl)phenyl)-1,1,1,3,3,3-hexafluoro-2-propanol] | 6.51 | 6.11 |  | 
16 | CC(O)(c1ccc(N2CCN(S(=O)(=O)c3cccs3)CC2CN2C[C@H]3C[C@@H]2CO3)cc1)C(F)(F)F (stereo partly drawn) [Example 50, 1,1,1-trifluoro-2-(4-(2-((1R,4R)-2-oxa-5-azabicyclo[2.2.1]hept-5-ylmethyl)-4-(2-thiophenylsulfonyl)-1-piperazinyl)phenyl)-2-propanol] | 6.17 | 6.06 |  | 
17 | CC(O)(c1ccc(N2CCN(S(=O)(=O)c3cccs3)CC2CN2CCOCC2)cc1)C(F)(F)F (mixture of isomers) [Example 61, 1,1,1-trifluoro-2-(4-(2-(4-morpholinylmethyl)-4-(2-thiophenylsulfonyl)-1-piperazinyl)phenyl)-2-propanol] | 6.64 | 6.45 |  | 
18 | O=S(=O)(c1ccccn1)N1CCN(c2ccc(C(O)(C(F)(F)F)C(F)(F)F)cc2)CC1 [Example 7, 1,1,1,3,3,3-hexafluoro-2-(4-(4-(2-pyridinylsulfonyl)-1-piperazinyl)phenyl)-2-propanol] | 5.42 | 5.48 |  | 
19 | CC1CN(CC2CN(S(=O)(=O)c3cccs3)CCN2c2ccc(C(C)(O)C(F)(F)F)cc2)CCO1 (mixture of isomers) [Example 49, 1,1,1-trifluoro-2-(4-(2-((2-methyl-4-morpholinyl)methyl)-4-(2-thiophenylsulfonyl)-1-piperazinyl)phenyl)-2-propanol] | 6.19 | 6.15 |  | 
20 | O=S(=O)(c1cccs1)N1CCN(c2ccc(C(O)(C(F)(F)F)C(F)(F)F)cc2-c2cccc(F)c2)CC1 [Example 71, 1,1,1,3,3,3-hexafluoro-2-(3′-fluoro-6-(4-(2-thiophenylsulfonyl)-1-piperazinyl)-3-biphenylyl)-2-propanol] | 5.44 | 5.74 |  | 
21 | Cc1ccc(S(=O)(=O)N2CCN(c3ccc(C(O)(C(F)(F)F)C(F)(F)F)cc3)CC2)s1 [Example 8, 1,1,1,3,3,3-hexafluoro-2-(4-(4-((5-methyl-2-thiophenyl)sulfonyl)-1-piperazinyl)phenyl)-2-propanol] | 5.34 | 4.94 |  | 
22 | Cn1ccc(S(=O)(=O)N2CCN(c3ccc(C(O)(C(F)(F)F)C(F)(F)F)cc3)CC2)n1 [Example 5, 1,1,1,3,3,3-hexafluoro-2-(4-(4-((1-methyl-1H-pyrazol-3-yl)sulfonyl)-1-piperazinyl)phenyl)-2-propanol] | 5.80 | 5.27 |  | 
